System: MCh depressor responses
Test: Methacholine-induced depressor responses in conscious guinea pigs
Assay type: in vivo, guinea pig
Settings: inhalation
Excerpt: Healthy, adult, male Sprague-Dawley guinea pigs (Harlan, Indianapolis, Ind.), weighing between 200 and 300 g were used in these studies. Under isoflurane anesthesia (to effect), animals were instrumented with common carotid artery and jugular vein catheters (PE-50 tubing). The catheters were exteriorized utilizing a subcutaneous tunnel to the subscapular area. All surgical incisions were sutured with 4-0 Ethicon Silk and the catheters locked with heparin (1000 units/mL). Each animal was administered saline (3 mL, SC) at the end of surgery as well as buprenorphine (0.05 mg/kg, IM). Animals were allowed to recover on a heating pad before being returned to their holding rooms.
Approximately 18 to 20 hours following surgery, the animals were weighed and the carotid artery catheter on each animal was connected to a transducer for recording arterial pressure. Arterial pressure and heart rate was recorded using a Biopac MP-100 Acquisition System. Animals were allowed to acclimate and stabilize for a period of 20 minutes.
Each animal was challenged with MCh (0.3 mg/kg, IV) administered through the jugular venous line and the cardiovascular response was monitored for 10 minutes. […] At 1.5 and 24 h post-dosing, the animals were re-challenged with MCh (0.3 mg/kg, IV) and the hemodynamic response was determined. […]

O=C(CCN1CCC(OC(=O)Nc2ccccc2-c2ccccc2)CC1)Nc1ccc(CNCc2ccc(O)cc2)cc1 [Example 1, Biphenyl-2-ylcarbamic Acid 1-(2-{4-[(4-Hydroxybenzylamino)methyl]phenylcarbamoyl}ethyl)piperidin-4-yl Ester]
apparent lung-selectivity index (ratio of anti-depressor ID50 to bronchoprotective ID50): greater than 5

From US7456199B2, “Biphenyl compounds useful as muscarinic receptor antagonists” (Theravance, Inc., priority 2004, dated 2008)
